# Key:
# [1] = tested on: hypoxic-N2a cells; assay: FasL-induced apoptosis in hypoxic N2a cells, Annexin V-PE staining; assay type: cell-based, mouse; conditions: hypoxic N2a cells treated with FasL, then peptide; for effect on Fas-mediated apoptosis / cell death compared to control: Fig 1B,C, three independent experiments
# Experimental: Figure 1 The inhibitory effect of FBP or leptin-PEG-FBP (L-P-F) on FasL-induced apoptosis in hypoxic-N2a. (A) Schematic illustration of the L-P-F peptide synthesis. (B,C) The N2a cells were cultured in a hypoxic condition in the presence of membrane-bound soluble FasL (5 nM) for 6 h, as described in the Methods section. The cells were then treated with 300 μM of the indicated peptides for 6 h and examined for Annexin V-PE staining. (B) Representative histograms illustrate the percentage of apoptosis with the peptide treatments, depicting live cells (in black) and apoptotic cells (in red). (C) Bar graph represents the percentage of Annexin V positive cells with the peptide treatments. Normoxia describes cells cultured in normal oxygen conditions. Hypoxia describes cells cultured in hypoxic conditions. The bar graph indicates the average ± SD of three independent experiments. The data in (C) was analyzed using Mann–Whitney U test (* p < 0.05; ns: not-significant). TEXT PRINTED IN THE PICTURE: (B) Mock: Annexin V: 86.4 | (B) ctrl-FBP: Annexin V: 82.0 | (B) Leptin: Annexin V: 83.5 | (B) FBP: Annexin V: 54.0 | (B) L-P-F: Annexin V: 56.5 DOUBTS OF THE COPYIST ABOUT THIS PICTURE: Panel B: the gate numbers have no unit or measure printed beside them; 'Annexin V' comes from the axis label printed once at the edge of the panel. / Panel B, Mock: this is a control treatment, not a substance; it is included because a gate value is printed with it. / Small print in panel B, so these digits are not certain: Mock 86.4, ctrl-FBP 82.0, Leptin 83.5, FBP 54.0, L-P-F 56.5.
# To evaluate the effect of leptin-PEG-FBP on Fas-mediated apoptosis, hypoxic Neuro2a mouse neuroblastoma (N2a) cells were treated with FasL ([…]), followed by a treatment with the peptides indicated in Figure 1B.
# Neuro2a mouse neuroblastoma cells (N2a) were obtained from ATCC (Rockville, MD) and cultured in Dulbecco’s modified Eagle’s medium (DMEM, Gibco) containing 10% fetal bovine serum, penicillin (100 IU/mL), and streptomycin (100 μg/mL). To mimic the in vitro ischemia/reperfusion environment, N2a cells were maintained in a hypoxic condition (94% N2, 5% CO2, 1% O2, 37 °C) in oxygen glucose deprivation media (OGD, Life Technologies, Carlsbad, CA, USA) for 24 h. The cells were then reoxygenated in DMEM supplemented with 10% FBS (5% CO2, 20% O2, 37 °C) for another 24 h and cultured in Dulbecco’s modified Eagle’s medium (DMEM) (Gibco) containing high glucose, supplemented with 10% calf serum and 1% penicillin-streptomycin. To analyze the functional effects of leptin-PEG-FBP, normoxia- and hypoxia-induced N2a cells were seeded in a six-well plate at 2 × 10^5/well with serum-free DMEM and treated with leptin-PEG-FBP at 1 mM for 6 h followed by exposure to a soluble Fas ligand (5 nM). […]
# [2] = tested on: Jurkat cells; assay: FasL-mediated apoptosis in Jurkat cells, Annexin V staining (effect of PEG size); assay type: cell-based; conditions: membrane-bound soluble FasL 20 ng/ml, 3 hr, peptides 300 µM, FasL alone approximately 40% apoptosis, three independent experiments, Fig S1
# Text: In a prior study, we observed that the Fas-blocking peptide (FBP) effectively disrupted Fas–FasL interactions, thereby inhibiting Fas-mediated apoptosis both in vitro and in vivo when delivered intranasally. In this study, we explored the impact of FBP through the clinically relevant systemic route of delivery. To conjugate FBP with leptin, a brain-targeting peptide that effectively penetrates the BBB, we employed polyethylene glycol (PEG) as a linker. We initially evaluated the toxicity of PEG of various sizes in Jurkat cells. The treatment of Jurkat cells with membrane-bound FasL induced approximately 40% apoptosis compared to non-FasL (normal) cells. […] Based on our findings, we conjugated PEG-2K to FBP (PEG-FBP) and then linked it with the leptin peptide. […] (Figure S2). The conjugation schematic is illustrated in Figure 1A.
# Figure S1. Effect of PEGylation length on apoptosis inhibition by FBP peptides. ( A) Apoptosis in Jurkat cells was assessed 3 hr post- treatment with membrane-bound soluble FasL (20 ng/ml), with and without peptides at a concentration of 300 µM using Annexin V staining. (B-C) Bar graphs illustrating the percentage of cells in early (B) and late (C) apoptosis. The compar ison includes non- treated, ctrl- FBP, FBP, and various PEGylated FBP (1K, 2K, 3.4K, 5K, 10K) after FasL treatment in Jurkat cells. […]
# [3] = tested on: MCAO rat model; assay: TUNEL assay of brain sections of MCAO rats; assay type: in vivo; conditions: 48 h post-MCAO
# Experimental: Ischemic stroke conditions in rat MCAO models lead to brain damage primarily through apoptosis. To assess the therapeutic effects of leptin-PEG-FBP on Fas-mediated apoptosis, we administrated 5 mg/kg of FBP systemically at 3 h and 6 h post-MCAO. At 48 h post-MCAO, we conducted necropsy to estimate the protein levels of Fas and cleaved caspase-3 in the brain samples. Ischemic stroke induced an elevated level of Fas and cleaved caspase-3, similar to the PBS-treated MCAO rats. […] Approximately 52% of cells were TUNEL-positive in the PBS-treated group, 55% in the PEG-FBP, and 47% in the leptin-treated group (Figure 5B). […]
# Figure 5 Leptin-PEG-FBP attenuates apoptosis in the MCAO rat model. […] (A) Representative Western blots and quantification of protein expression for Fas and cleaved caspase-3 in the brain of […] at 48 h post-MCAO. […] (B) Representative microscopy images of TUNEL-stained brain sections (red) and quantification of TUNEL-positive cells in the ischemic region of MCAO after necropsy. (C) Representative microscopy images of cleaved caspase-3-stained brain sections (green) and quantification of positive cells in the ischemic region of MCAO after necropsy. […] Data represent mean ± SD (n = 3 animals per group) and were analyzed using Mann–Whitney U test. […]
# [4] = tested on: MCAO rat model; assay: TTC staining, infarction in MCAO rats; assay type: in vivo; conditions: 5 mg/kg i.v., 48 h post-MCAO, n = 5, PBS group 37%, Fig 6A
# Experimental: (§1) The induction of apoptosis in the penumbra after MCAO results in brain damage, leading to the formation of infarcts or areas of tissue damage. To examine the impact of leptin-PEG-FBP on brain infraction, we conducted triphenyltetrazolium chloride (TTC) staining at 48 h post-treatment.
# (§2) Figure 6 Improvement of MCAO-induced infarction and histopathological changes with leptin-PEG-FBP treatment. MCAO rats were systemically treated with indicated peptides (5 mg/kg, i.v.) at […]. (A) Brain slices stained with TTC after necropsy. Quantitative analysis of infarction is shown on the right. Data represent mean ± SD (n = 5 animals per group). (B) Images of Nissl-stained brain slices (left) and quantitative analysis of infarction volume on the right. (C) Representative images of hematoxylin and eosin (H&E) brain sections from normal or MCAO-subjected animals after treatment. Data were analyzed using Mann–Whitney U test. Data represent the mean ± SD (* […]; ** p < 0.01; ns: not-significant).
# Pathology in brain tissues was analyzed by staining 2 mm brain slices in 2% 2,3,5-tryphenyltetrazolium chloride (TTC, Sigma Aldrich, St. Louis, MO, USA) for 15 min at 37 °C. The infarcted volume was calculated after fixation using Image J software version 1.54d, as described.
# [5] = tested on: MCAO rat model; assay: Nissl staining, infarction volume in MCAO rats; assay type: in vivo; conditions: 5 mg/kg i.v., 48 h, PBS group around 45%, Fig 6B
# Experimental: as §1, §2
# Infarcted brain volume was analyzed using Nissl staining. The OCT-embedded brain samples for cryosection were fixed using 4% PFA at room temperature and subjected to 0.1% crystal violet solution following standard protocol. The stained sections were cover-slipped and blindly pictured using full-screening scanner. The infarcted volume was calculated using Image J software version 1.54d.
# [6] = tested on: MCAO rat model; assay: H&E histology of brain sections of MCAO rats; assay type: in vivo; conditions: 5 mg/kg i.v., 48 h, Fig 6C
# Experimental: as §1, §2
# Rats were sacrificed and perfused with PBS. Brains were carefully removed, embedded in OCT compound (Sakura Finetek, Alphen aan den Rijn, The Netherlands), rapidly cryopreserved in frigid isopentane chilled with liquid nitrogen, and stored at −80 °C until the subsequent sectioning procedure. […]
# [7] = rat, in vivo, iv
# Experimental: Figure S2. Leptin peptide-mediated brain delivery in rats. Biodistribution (left panel)
# of A647-conjugated peptides delivered intravenous (n=3) in normal rats. Brain, lung,
# liver, spleen and kidney were examined 24 hr post- inoculation. Rats were treated with
# RV -M AT , the control peptide and the leptin peptide. Cumulative data (right panel)
# show relative fluorescence intensities measured in arbitrary pixel values for examined
# tissues. The measurements are compared to the n ormal groupand are based on three
# (1 picture or pasted object on this page, not shown here)
# [8] = mouse, in vivo, iv, 2.5 mg/kg
# Experimental: To confirm the specificity of leptin-mediated FBP delivery to the brain, we systemically administered Alexa^647-conjugated leptin alone, PEG-FBP, and leptin-PEG-FBP in leptin receptor-deficient db/db mice subjected to photothrombosis (Figure 3A).
# Wildtype and leptin receptor-deficient (db/db) mice were subjected to photothrombotic stroke, followed by administration of the indicated peptides (2.5 mg/kg Alexa^647-labelled peptides, i.v.). Organs were collected at 12 h post-delivery and imaged on Kodak imaging station. (A,B) Representative images and quantification of fluorescence intensities after necropsy. Control mice were inoculated with PBS. Fluorescence intensities measured in arbitrary pixel values were normalized to fluorescence intensities in the PBS-treated group. The data represent mean ± SD (n = 5 per group). The data in (B) were analyzed using Mann–Whitney U test (* p < 0.05; ** p < 0.01).
# (§3) For bio-distribution studies, Alexa^647-conjugated peptides were intravenously (IV) administered at 2.5 mg/kg. […] Fluorescence was analyzed at designated time points. After 12 h inoculation, fluorescence was measured in the brain, lung, liver, spleen, and kidney using image station (Kodak, Stamford, CT, USA).
# [9] = rat, in vivo
# Experimental: To explore the feasibility of ischemic-specific FBP delivery, we administered Alexa^647-conjugated peptides to a rat middle cerebral artery occlusion (MCAO) ischemic stroke model. The peptides were delivered via the intravenous route (2.5 mg/kg) and the brain and peripheral organs were examined 24 h post-inoculation. […] Next, we conducted an in-depth analysis to validate the localization through confocal microscopy.
# Rats underwent middle cerebral artery occlusion, followed by the administration of the indicated Alexa^647-labelled peptides (2.5 mg/kg, i.v.). Organs were harvested 24 h post-inoculation and imaged on Kodak imaging station. […] Control mice were inoculated with PBS.
# Acute cerebral ischemia was produced using a 1 h occlusion of the right middle cerebral artery (MCAO) in Sprague–Dawley rats weighing 280–320 g (Orient Bio, Seoul, Republic of Korea), as previously described [76]. […]
# as §3
Sequence,decrease in Annexin V positivity upon exposure to FasL ([1]; Fig 1B) [%],effect on Fas-mediated apoptosis / cell death compared to control [1],effect on FasL-mediated apoptosis in Jurkat cells [2],"TUNEL-positive cells in the ischemic region ([3]; 5 mg/kg i.v. at 3 h and 6 h post-MCAO, confocal, n = 3, PBS group 52%, Fig 5B) [%]","change in TUNEL and cleaved caspase-3 positive cells ([3]; 5 mg/kg i.v., Fig 5B,C)","infarction volume, TTC staining [4] [%]","infarction volume, Nissl staining [5] [%]","tissue damage in right hemisphere, H&E staining [6]",delivery to the brain compared to negative control peptide RV-MAT [7],brain delivery in leptin receptor-deficient db/db mice [8],"Alexa647-positive cells in brain sections, confocal microscopy [9]"
YCDEHFCY [FBP],40,significantly reduced cell death,significantly reduced FasL-mediated apoptosis,–,–,–,–,–,–,–,–
"YCNSTVCY [ctrl-FBP, control FBP peptide YCNSTVCY]",–,did not demonstrate a reduction,–,–,–,–,–,–,–,–,–
YQQVLTSLPSQNVLQIANDLENLRDLLHLLGGGC [leptin],–,did not demonstrate a reduction,–,~47,no significant changes,32,~45,significant damage to the tissue morphology,successful delivery to the brain,did not bind to the brain,strong Alexa^647 positive cells
